The results in this text go back to patent US20250120967A1, “TYROSINE KINASES INHIBITORS AND USES THEREOF” (GREAT NOVEL THERAPEUTICS BIOTECH & MEDICALS CORPORATION, priority 2023, published 2025).

The target in one assay is T1, MERTK (cMER) (Homo sapiens, UniProt Q12866).
T1 sequence (Q12866 21-999): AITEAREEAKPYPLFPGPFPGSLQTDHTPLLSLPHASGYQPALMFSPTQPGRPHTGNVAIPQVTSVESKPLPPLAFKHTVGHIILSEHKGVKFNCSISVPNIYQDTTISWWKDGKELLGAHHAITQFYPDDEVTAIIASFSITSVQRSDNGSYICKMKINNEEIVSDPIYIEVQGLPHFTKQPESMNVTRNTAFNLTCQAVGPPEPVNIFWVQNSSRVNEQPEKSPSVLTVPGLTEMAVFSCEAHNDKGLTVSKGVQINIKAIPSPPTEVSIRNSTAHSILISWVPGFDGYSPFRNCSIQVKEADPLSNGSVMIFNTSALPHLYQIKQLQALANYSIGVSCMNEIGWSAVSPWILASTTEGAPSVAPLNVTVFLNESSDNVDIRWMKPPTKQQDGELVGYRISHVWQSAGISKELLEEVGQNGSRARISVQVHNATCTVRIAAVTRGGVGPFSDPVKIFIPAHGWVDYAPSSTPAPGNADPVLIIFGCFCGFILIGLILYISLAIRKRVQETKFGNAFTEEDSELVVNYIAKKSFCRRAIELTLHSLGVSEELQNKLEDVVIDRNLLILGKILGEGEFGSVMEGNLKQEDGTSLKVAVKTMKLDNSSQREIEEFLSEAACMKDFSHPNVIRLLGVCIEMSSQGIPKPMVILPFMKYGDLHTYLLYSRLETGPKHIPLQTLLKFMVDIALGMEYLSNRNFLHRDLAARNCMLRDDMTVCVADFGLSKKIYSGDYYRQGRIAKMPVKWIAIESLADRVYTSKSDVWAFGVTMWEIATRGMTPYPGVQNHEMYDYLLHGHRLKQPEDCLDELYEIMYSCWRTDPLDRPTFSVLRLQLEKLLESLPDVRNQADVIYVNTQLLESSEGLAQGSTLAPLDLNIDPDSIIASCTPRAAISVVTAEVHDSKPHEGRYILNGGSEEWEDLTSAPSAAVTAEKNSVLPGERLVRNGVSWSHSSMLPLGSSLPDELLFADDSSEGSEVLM
The assay is described as follows: Tyrosine kinase inhibition assay. Type of assay: biochemical. Particulars: for IC50: read-out: IC50 of compound; for inhibition at 1 µM: single concentration 1.0 μM, read-out: percent inhibition.

A further assay deals with T2, AXL (Homo sapiens, UniProt P30530).
T2 sequence (P30530 26-894): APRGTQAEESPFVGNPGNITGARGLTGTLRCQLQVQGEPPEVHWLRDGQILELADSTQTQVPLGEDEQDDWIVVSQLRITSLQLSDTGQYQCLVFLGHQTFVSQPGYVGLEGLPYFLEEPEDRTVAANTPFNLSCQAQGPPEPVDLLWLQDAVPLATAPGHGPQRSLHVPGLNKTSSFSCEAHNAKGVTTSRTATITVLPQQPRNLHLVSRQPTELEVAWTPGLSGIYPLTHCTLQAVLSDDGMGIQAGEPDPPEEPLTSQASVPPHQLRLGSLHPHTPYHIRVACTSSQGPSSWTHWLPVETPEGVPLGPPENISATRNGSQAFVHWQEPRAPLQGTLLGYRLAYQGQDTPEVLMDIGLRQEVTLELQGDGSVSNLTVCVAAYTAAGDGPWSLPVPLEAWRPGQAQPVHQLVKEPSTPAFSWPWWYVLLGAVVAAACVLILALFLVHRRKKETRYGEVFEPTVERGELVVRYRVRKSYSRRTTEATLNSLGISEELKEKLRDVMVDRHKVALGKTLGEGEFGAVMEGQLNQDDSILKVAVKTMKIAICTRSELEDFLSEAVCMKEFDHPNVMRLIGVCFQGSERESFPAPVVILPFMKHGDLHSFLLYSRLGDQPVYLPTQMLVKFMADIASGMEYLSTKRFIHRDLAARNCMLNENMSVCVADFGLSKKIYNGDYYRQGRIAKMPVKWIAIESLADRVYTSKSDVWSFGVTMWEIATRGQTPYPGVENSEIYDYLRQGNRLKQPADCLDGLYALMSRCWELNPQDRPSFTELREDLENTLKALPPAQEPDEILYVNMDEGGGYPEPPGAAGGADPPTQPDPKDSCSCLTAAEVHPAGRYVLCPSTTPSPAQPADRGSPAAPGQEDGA
Nature of the assay: Tyrosine kinase inhibition assay. It is filed as biochemical. The settings on record: for IC50: read-out: IC50 of compound; for inhibition at 1 µM: single concentration 1.0 μM, read-out: percent inhibition.

The next assay concerns CT26 tumor. Nature of the assay: Experimental tumor model and therapies, CT26 tumor-bearing mice.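 Further: male Balb/c mice bearing CT26 grafts in the back, treated once tumors reached roughly 250–300 mm^3, tumor volume measured twice weekly, response graded by fold growth after treatment end.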
Where [1] appears, read: FIG. 2E, oral once daily, Cabozantinib 30 mg/kg, Cbo-02 30 mg/kg, Chidamide-K30 50 mg/kg.
Setting [2] is: FIG. 3E, oral 12 days, Cabozantinib 30 mg/kg, Cbo-20 30 mg/kg, GNTbm-38-K30 40 mg/kg.
[3] abbreviates: FIG. 6E, Cbo-23 30 mg/kg, Cabozantinib 30 mg/kg, GNTbm-38-K30 20 mg/kg.
[4] abbreviates: FIG. 6F, Cbo-23 30 mg/kg, Cabozantinib 30 mg/kg, GNTbm-38-K30 20 mg/kg.
The mark [5] stands for this setting: FIG. 5E, Cbo-23 30 mg/kg, Regorafenib 30 mg/kg, GNTbm-38-K30 20 mg/kg in combination, 5 mg/kg alone.

Procedure for CT26 tumor: LLC1 was grown at 37° C. under humidified air supplemented with CO2 in DMEM (#10-013-CM, Corning®) containing 10% heat inactivated fetal calf serum, and 1× concentration of MycoZap Antibiotics. CT26 was grown at 37° C. under humidified air supplemented with CO2 in RPMI1640 (cat. #10-040-CM, Corning®) containing 10% heat inactivated fetal calf serum, and 1× concentration of MycoZap Antibiotics. After the cancer cell culture was completed, it was implanted (1×10^6 cells/mouse) into the back of the mouse for growth.
Six- to eight-week-old male Balb/c mice (National Laboratory Animal Center, Taiwan) were used for all animal experiments. […] Tumors were allowed to grow for 10-12 days (tumor size about 250-300 mm^3) before randomization and treatment. The tumor volume of the mice was measured once every three or four days (twice/week). Animals were euthanized when tumors reached more than 3000 mm^3 in diameter. […] Relapse/recurrence was defined as when tumor growth reappeared and tumor size reached at least 5 fold in mice with CR or PR response after secondary tumor assessment. In this study, we defined Complete Response (CR, <0.5 time tumor growth in the tumor bearing mice at tumor assessment after the end of treatment); Partial Response (PR, tumor size ≥0.5 time tumor growth, but <1 time tumor growth in the tumor bearing mice at tumor assessment after the end of treatment); Stable Disease (SD, ≥1 time tumor growth, but <5 times tumor growth in the tumor bearing mice at tumor assessment after the end of treatment); and Progressive Disease (PD, ≥5 times tumor growth in the tumor bearing mice at tumor assessment after the end of treatment) for the evaluation of treatment efficacy.

As for `CNC(=O)c1cc2c(Oc3ccc(NC(=O)C4(C(=O)Nc5ccc(F)cc5)CC4)cc3)ccnc2cc1OC` [Zanzalintinib, reference compound], the results for the IC50 on MERTK (cMER) and on AXL were 6.96 nM and 1.41 nM, respectively.
As for `COc1cc2nccc(Oc3ccc(NC(=O)C4(C(=O)Nc5ccc(F)cc5)CC4)cc3)c2cc1OC` [Cabozantinib, reference compound], the ORR in the assay on CT26 tumor (setting [1]) is given as 0%; in the assay on CT26 tumor (setting [2]), 0%; with CT26 tumor (FIG. 4D, Cabozantinib 30 mg/kg, Cbo-22 30 mg/kg, GNTbm-38-K30 40 mg/kg) it was 0%; with CT26 tumor (setting [3]) it was 44%. Moreover, the “CR (number of mice)” value with CT26 tumor (setting [2]) was 0; in the assay on CT26 tumor (setting [3]), 3. The entries for the “PD (number of mice)” value in the assay on CT26 tumor (setting [2]) and in the assay with CT26 tumor (setting [3]) were 5 and 2, respectively. Further, the “PR (number of mice)” value in the assay on CT26 tumor (setting [2]) is on record as 0; in the assay on CT26 tumor (setting [3]), 1. Also, the “Survival Rate” value in the assay with CT26 tumor (FIG. 3F, Cabozantinib 30 mg/kg, Cbo-20 30 mg/kg, GNTbm-38-K30 40 mg/kg) is 0%; with CT26 tumor (FIG. 4E, Cabozantinib 30 mg/kg, Cbo-22 30 mg/kg, GNTbm-38-K30 40 mg/kg), 0%; with CT26 tumor (setting [4]) it was 33%.
Take `COc1cc2nccc(Oc3ccc(NC(=O)C4(C(=O)Nc5ccc(F)cc5)CC4)cc3F)c2cc1Oc1ccc(N)cc1F` [Cbo-23]: at MERTK (cMER), the IC50 amounted to 3.72 nM and the inhibition at 1 µM was determined as 98%. At AXL, the IC50 was 5.42 nM and the inhibition at 1 µM worked out at 106%. Further, in the assay with CT26 tumor (setting [5]), the “CR (number of mice)” value amounted to 2, the ORR came out at 22%, the “PD (number of mice)” value is reported as 7 and the “PR (number of mice)” value came to 0. Besides, the “Survival Rate” value in the assay on CT26 tumor (FIG. 5F, Cbo-23 30 mg/kg, Regorafenib 30 mg/kg, GNTbm-38-K30 20 mg/kg in combination, 5 mg/kg alone) was 11%. Further, the recurrence rate in the assay with CT26 tumor (FIG. 5G, day 60, Cbo-23 30 mg/kg, Regorafenib 30 mg/kg, GNTbm-38-K30 20 mg/kg in combination, 5 mg/kg alone) amounted to 50%. In addition, in the assay with CT26 tumor (setting [3]), the “CR (number of mice)” value stood at 3, the ORR is recorded as 30%, the “PD (number of mice)” value stood at 7 and the “PR (number of mice)” value stood at 0. The “Survival Rate” value with CT26 tumor (setting [4]) was found to be 20%.
For `COc1cc2nccc(Oc3ccc(NC(=O)C4(NC(=O)c5ccc(F)cc5)CC4)cc3F)c2cc1Oc1ccc(N)cc1F` [Cbo-10], the inhibition at 1 µM on MERTK (cMER) is 95%; on AXL, 98%.
`COc1cc2nccc(Oc3ccc(NC(=O)C4(NC(=O)c5ccc(F)cc5)CC4)cc3F)c2cc1OC` [Cbo-02, N-(1-((4-((6,7-diMethoxyquinolin-4-yl)oxy)-3-fluorophenyl)carbamoyl)cyclopropyl)-4-fluorobenzamide]: the inhibition at 1 µM was 100% on MERTK (cMER) and 91% at AXL. The same compound yielded an ORR in the assay on CT26 tumor (setting [1]) of 10%.
As to `COc1cc2nccc(Oc3ccc(NC(=O)C4(NC(=O)c5ccc(F)cc5)CC4)cc3F)c2cc1Oc1c(F)cc(N)cc1F` [Cbo-14], the inhibition at 1 µM on MERTK (cMER) stood at 97%; on AXL, 96%.
